Measured values: article PMC9065877, “Safety, tolerability and pharmacokinetics of the oligomer modulator anle138b with exposure levels sufficient for therapeutic efficacy in a murine Parkinson model: A randomised, double-blind, placebo-controlled phase 1a trial” (EBioMedicine, 2022)

Assay: Safety and tolerability (adverse events, laboratory, vital signs, ECG) in phase 1a trial in healthy subjects
Format: in vivo, human
Protocol: The primary objective was to assess the safety and tolerability of single (SAD) and multiple (MAD) ascending doses of anle138b to healthy subjects in the fasted state and to assess the safety and tolerability of single doses of anle138b in both the fasted and fed state (FES). To this end, adverse events (AEs), clinical laboratory tests, vital signs, electrocardiograms (ECGs), QT interval corrected for heart rate using Fridericia's formula (QTcF), and physical examination findings were recorded. Participants were instructed to report all potential AEs immediately to the on-site personnel and were assessed by a physician before each dose of study drug. In addition, a physical examination of the relevant body system was performed in the event that a subject reports any new symptoms or AEs. AEs were defined following standard criteria, which are described in the protocol. The detailed parameters and sampling schedule regarding haematology, clinical chemistry, ECG, blood pressure, heart rate and PK are provided in the supplement (supplement 3). Any clinically significant abnormality in these assessments, including changes from baseline, were needed to be reported as an AE.
AEs and medications were coded using the Medical Dictionary for Regulatory Activities (MedDRA) (v22·1). An independent coding review was performed within the Data Sciences department. Clinical chemistry and haematology data (and other safety laboratory data) were collected by a central laboratory (The Doctors Laboratory) and transferred electronically to Quotient Sciences. The list of parameters is provided in supplement 2. All demographic details and sample dates were cross-referenced with the corresponding data on the study database. Data was monitored by an external entity (Wirral Clinical Consultancy Ltd, Heswall, UK). Monitoring included the conduct of a site initiation visit, interim monitoring visits and a close-out visit. The database was closed after all queries had been resolved.
The study was exploratory and no formal sample size calculation was made. Based on experience from previous studies of similar design, eight subjects per cohort were enrolled for parts 1 (SAD) and 2 (MAD) and a total of twelve subjects for part 3 (FES). Populations and analysis sets were determined for safety and PK data after database lock using the criteria defined in the reporting and analysis plan. The safety population and safety analysis set for SAD and MAD were defined after database lock but prior to study unblinding. Statistical analysis and production of summary tables, figures and listings for all safety data (AEs, vital signs, ECGs and safety laboratory assessments) including changes from baseline as required in this study were performed using the statistical package SAS (v9·4). Additional statistics was provided for PK-related data including coefficient of variation (CV%), geometric mean, geometric CV%, and the number n of subjects that were included in the natural logarithmic transformation). In SAD and MAD, dose proportionality was assessed. Formal statistical analysis was performed on the log-transformed PK parameters AUC(0-last), AUC(0-inf), and Cmax for SAD (day 1), and AUC(0-tau) and Cmax for MAD (day 1 and day 7) to assess dose proportionality using the following power model: loge (AUC or Cmax) = µ + βx loge (dose). The estimate obtained for β is a measure of dose proportionality. The estimate of β together with its 90% confidence interval (CI) (βl, βu) was used to quantify the degree of non-proportionality. In MAD, formal statistical analysis was performed on the PK parameters AUC(0-tau) and Cmax to assess dose accumulation. Log-transformed AUC(0-tau) and Cmax was subjected to a mixed-effects model with treatment (dose level), day (day 1 or 7) and treatment-by-day interaction as fixed effects and subject as a random effect. […]

[1] = Food effect cohort, anle138b 150 mg fed and fasted, N=12
[2] = MAD cohorts, anle138b 100-300 mg QD 7 days, N=18
[3] = SAD cohorts, anle138b 50-300 mg single dose, N=24

With `Brc1cccc(-c2cc(-c3ccc4c(c3)OCO4)n[nH]2)c1` [anle138b, 3-(1,3-benzodioxol-5-yl)-5-(3-bromophenyl)-1H-pyrazole] the “Dose dependency of AE reporting” value (50 to 300 mg) was “no dose dependency”, the “Adverse events by attribution to study treatment: Definite, number of events” value (shortened to “Adverse events … Definite, number of events”) (Food effect cohort, N=12) was 0 and the “Adverse events by attribution to study treatment: Not related, number of events (%)” value (Food effect cohort, N=12) was 6 (100). For the same compound, the “Adverse events by attribution to study treatment: Possible, number of events (%)” value (shortened to “Adverse events … Possible, number of events (%)”) (Food effect cohort, N=12) was 0, the “Adverse events by attribution to study treatment: Probable, number of events” value (shortened to “Adverse events … Probable, number of events”) (Food effect cohort, N=12) was 0 and the “Adverse events by grade: Mild, number of events (%)” value (shortened to “Adverse events by grade: Mild … (%)”) (Food effect cohort, N=12) was 6 (100). For the same compound, the “Adverse events by grade: Moderate, number of events (%)” value (Food effect cohort, N=12) was 0, the “Adverse events by outcome: Recovered, number of events (%)” value (“Adverse events by outcome … (%)” for short) (Food effect cohort, N=12) was 6 (100) and the “Eye disorders (ocular hyperaemia, vision blurred): number of events [patients affected %]” value (from here on “Eye disorders … [patients affected %]”) (Food effect cohort, N=12) was 0. The “Gastrointestinal disorders (diarrhea, nausea): number of events [patients affected %]” value (Food effect cohort, N=12) was 0, the “General disorders and administration site conditions (Chest discomfort, fatigue, medical device site reaction): number of events [patients affected %]” value (Food effect cohort, N=12) was 1 [8·3] and the “Infections and infestations (Nasopharyngitis, rhinitis): number of events [patients affected %]” value (Food effect cohort, N=12) was 0. For the same compound, the “Injury, poisoning and procedural complications (procedural dizziness): number of events [patients affected %]” value (from here on “Injury … [patients affected %]”) (Food effect cohort, N=12) was 2 [16·7], the “Musculosceletal and connective tissue disorders (Back pain): number of events [patients affected %]” value (Food effect cohort, N=12) was 0 and the “Nervous system disorders (headache, paraestesia): number of events [patients affected %]” value (“Nervous system disorders … [patients affected %]” for short) (Food effect cohort, N=12) was 3 [25]. The “Psychiatric disorders (abnormal dreams): number of events [patients affected %]” value (“Psychiatric disorders … [patients affected %]” for short) (Food effect cohort, N=12) was 0, the “Number of patients with adverse event(s) [%]” value [1] was 5 [41·7] and the “Number of patients with no adverse event [%]” value [1] was 7 [58·3]. The “Adverse events … Definite, number of events” value (MAD cohorts, N=18) was 0, the “Adverse events by attribution to study treatment: Not related, number of events (%)” value (MAD cohorts, N=18) was 9 (90) and the “Adverse events … Possible, number of events (%)” value (MAD cohorts, N=18) was 1 (10). The “Adverse events … Probable, number of events” value (MAD cohorts, N=18) was 0, the “Adverse events by grade: Mild … (%)” value (MAD cohorts, N=18) was 9 (90) and the “Adverse events by grade: Moderate, number of events (%)” value (MAD cohorts, N=18) was 1 (10). The “Adverse events by outcome … (%)” value (MAD cohorts, N=18) was 10 (100), the “Eye disorders … [patients affected %]” value (MAD cohorts, N=18) was 1 [5·6] and the “Gastrointestinal disorders (diarrhea, nausea): number of events [patients affected %]” value (MAD cohorts, N=18) was 1 [5·6]. For the same compound, the “General disorders and administration site conditions (Chest discomfort, fatigue, medical device site reaction): number of events [patients affected %]” value (MAD cohorts, N=18) was 1 [5·6], the “Infections and infestations (Nasopharyngitis, rhinitis): number of events [patients affected %]” value (MAD cohorts, N=18) was 1 [5·6] and the “Injury … [patients affected %]” value (MAD cohorts, N=18) was 0. The “Musculosceletal and connective tissue disorders (Back pain): number of events [patients affected %]” value (MAD cohorts, N=18) was 2 [11·1], the “Nervous system disorders … [patients affected %]” value (MAD cohorts, N=18) was 4 [16·7] and the “Psychiatric disorders … [patients affected %]” value (MAD cohorts, N=18) was 0. For the same compound, the “Number of patients with adverse event(s) [%]” value [2] was 6 [33·3], the “Number of patients with no adverse event [%]” value [2] was 12 [66·7] and the “Moderate AE” value (MAD part, 100 mg anle138b) was “an episode of back pain”. The “AE considered possibly related to the study medication” value (MAD part, 200 mg anle138b, assessed prior to unblinding) was “one event of headache”, the “Adverse events … Definite, number of events” value (SAD cohorts, N=24) was 0 and the “Adverse events by attribution to study treatment: Not related, number of events (%)” value (SAD cohorts, N=24) was 5 (100). The “Adverse events … Possible, number of events (%)” value (SAD cohorts, N=24) was 0, the “Adverse events … Probable, number of events” value (SAD cohorts, N=24) was 0 and the “Adverse events by grade: Mild … (%)” value (SAD cohorts, N=24) was 5 (100). The “Adverse events by grade: Moderate, number of events (%)” value (SAD cohorts, N=24) was 0, the “Adverse events by outcome … (%)” value (SAD cohorts, N=24) was 5 (100) and the “Eye disorders … [patients affected %]” value (SAD cohorts, N=24) was 1 [4·2]. The “Gastrointestinal disorders (diarrhea, nausea): number of events [patients affected %]” value (SAD cohorts, N=24) was 0, the “General disorders and administration site conditions (Chest discomfort, fatigue, medical device site reaction): number of events [patients affected %]” value (SAD cohorts, N=24) was 0 and the “Infections and infestations (Nasopharyngitis, rhinitis): number of events [patients affected %]” value (SAD cohorts, N=24) was 1 [4·2]. For the same compound, the “Injury … [patients affected %]” value (SAD cohorts, N=24) was 0, the “Musculosceletal and connective tissue disorders (Back pain): number of events [patients affected %]” value (SAD cohorts, N=24) was 1 [4·2] and the “Nervous system disorders … [patients affected %]” value (SAD cohorts, N=24) was 2 [8·3]. For the same compound, the “Psychiatric disorders … [patients affected %]” value (SAD cohorts, N=24) was 0, the “Number of patients with adverse event(s) [%]” value [3] was 4 [16·7] and the “Number of patients with no adverse event [%]” value [3] was 20 [83·3]. The “Tolerability and compound-related side effects” value (all tested doses (up to 300 mg)) was “excellent tolerability and no compound-related side effects” and the “Changes in safety assessments (laboratory values, vital signs, physical examinations, ECG)” value (any subject included in the trial) was “no clinically significant individual changes from baseline or notable trends”.
